The record followed here is ChEMBL document CHEMBL5465560, “Selectivity Literature for EUbOPEN Chemogenomic Library” (2024).

The target of test [1] is G protein-coupled receptor kinase 4 (Homo sapiens) (UniProt P32298). Briefly: Selectivity interaction (Ambit KINOMEscan and KiNATiv profiling in Jurkat cells) EUB0000090b GRK4. The class given is cell-based. To be noted: at 1 µM.
The target of test [2] is T1, Dual specificity mitogen-activated protein kinase kinase 3 (Homo sapiens) (UniProt P46734).
T1 sequence (whole entry): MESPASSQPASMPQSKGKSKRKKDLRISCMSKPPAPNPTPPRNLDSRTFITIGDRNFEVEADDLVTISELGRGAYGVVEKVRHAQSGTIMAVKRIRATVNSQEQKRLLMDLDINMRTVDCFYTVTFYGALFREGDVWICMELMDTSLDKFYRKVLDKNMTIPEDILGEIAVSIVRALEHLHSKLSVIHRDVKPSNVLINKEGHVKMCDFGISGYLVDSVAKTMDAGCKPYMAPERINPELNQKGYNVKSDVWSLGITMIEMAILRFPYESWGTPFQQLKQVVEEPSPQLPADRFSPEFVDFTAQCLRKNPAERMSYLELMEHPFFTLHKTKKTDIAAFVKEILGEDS
The experiment in a line: Selectivity interaction (KinomeScan (DiscoverX)) EUB0001079a MAP2K3. To be noted: at 1 µM.

In test [3] the target is T2, Mitogen-activated protein kinase kinase kinase 15 (Homo sapiens) (UniProt Q6ZN16).
T2 sequence (whole entry): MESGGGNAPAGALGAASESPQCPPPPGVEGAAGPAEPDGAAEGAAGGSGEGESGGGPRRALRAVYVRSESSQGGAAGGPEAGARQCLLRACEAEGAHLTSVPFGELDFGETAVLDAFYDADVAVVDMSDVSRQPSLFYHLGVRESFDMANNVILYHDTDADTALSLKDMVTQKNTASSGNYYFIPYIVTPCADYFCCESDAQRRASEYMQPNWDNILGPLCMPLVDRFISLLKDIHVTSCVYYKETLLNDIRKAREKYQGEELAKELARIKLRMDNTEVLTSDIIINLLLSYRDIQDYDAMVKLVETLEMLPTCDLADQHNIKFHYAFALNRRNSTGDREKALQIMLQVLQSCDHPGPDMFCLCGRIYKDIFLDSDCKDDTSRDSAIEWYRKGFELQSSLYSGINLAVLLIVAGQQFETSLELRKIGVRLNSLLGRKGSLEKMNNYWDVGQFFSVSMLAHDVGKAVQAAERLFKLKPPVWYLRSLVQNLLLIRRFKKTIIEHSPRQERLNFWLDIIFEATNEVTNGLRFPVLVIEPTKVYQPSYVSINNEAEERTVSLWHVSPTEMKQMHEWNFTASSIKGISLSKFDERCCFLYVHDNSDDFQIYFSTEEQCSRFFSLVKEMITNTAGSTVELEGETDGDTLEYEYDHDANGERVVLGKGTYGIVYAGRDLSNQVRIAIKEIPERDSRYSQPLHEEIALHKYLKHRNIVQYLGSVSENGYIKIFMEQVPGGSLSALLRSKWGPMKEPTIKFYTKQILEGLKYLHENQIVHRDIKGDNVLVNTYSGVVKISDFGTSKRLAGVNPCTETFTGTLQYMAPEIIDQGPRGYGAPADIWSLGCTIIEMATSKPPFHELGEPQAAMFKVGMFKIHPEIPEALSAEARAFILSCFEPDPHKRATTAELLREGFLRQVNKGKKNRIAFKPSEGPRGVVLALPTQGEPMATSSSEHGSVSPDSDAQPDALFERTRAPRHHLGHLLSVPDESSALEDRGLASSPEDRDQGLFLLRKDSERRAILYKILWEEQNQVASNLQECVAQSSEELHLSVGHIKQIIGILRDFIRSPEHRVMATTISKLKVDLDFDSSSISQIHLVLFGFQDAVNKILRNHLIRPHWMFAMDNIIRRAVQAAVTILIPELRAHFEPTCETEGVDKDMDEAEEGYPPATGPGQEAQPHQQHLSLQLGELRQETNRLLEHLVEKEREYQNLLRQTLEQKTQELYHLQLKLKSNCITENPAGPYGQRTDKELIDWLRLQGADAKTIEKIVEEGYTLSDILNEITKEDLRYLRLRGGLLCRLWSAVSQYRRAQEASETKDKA
The experiment in a line: Selectivity interaction (KinomeScan (DiscoverX)) EUB0001079a MAP3K15. To be noted: at 1 µM.

The target in test [4] is T3, Membrane-associated tyrosine- and threonine-specific cdc2-inhibitory kinase (Homo sapiens) (UniProt Q99640).
T3 sequence (whole entry): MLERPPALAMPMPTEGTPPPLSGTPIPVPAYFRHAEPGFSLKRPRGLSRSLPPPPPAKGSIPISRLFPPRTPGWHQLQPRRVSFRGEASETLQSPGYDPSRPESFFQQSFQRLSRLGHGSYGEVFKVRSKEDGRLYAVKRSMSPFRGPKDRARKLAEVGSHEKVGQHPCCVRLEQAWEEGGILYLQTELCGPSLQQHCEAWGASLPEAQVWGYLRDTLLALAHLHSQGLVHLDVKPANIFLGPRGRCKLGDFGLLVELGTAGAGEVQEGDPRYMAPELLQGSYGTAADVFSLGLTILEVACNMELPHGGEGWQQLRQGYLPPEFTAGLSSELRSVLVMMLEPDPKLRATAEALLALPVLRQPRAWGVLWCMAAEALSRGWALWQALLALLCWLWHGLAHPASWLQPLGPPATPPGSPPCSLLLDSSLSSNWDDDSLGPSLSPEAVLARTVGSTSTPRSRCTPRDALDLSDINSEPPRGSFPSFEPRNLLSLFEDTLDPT
The experiment in a line: Selectivity interaction (KinomeScan (DiscoverX)) EUB0000092b PKMYT1. Particulars: at 10 µM.

For test [5], the target named is Serine/threonine-protein kinase OSR1 (Homo sapiens) (UniProt O95747). The experiment in a line: Selectivity interaction (KinomeScan (DiscoverX)) EUB0001049a OXSR1. To be noted: at 1 µM.
Serine/threonine-protein kinase OSR1 (Homo sapiens), sequence (O95747 2-527 limits assumed): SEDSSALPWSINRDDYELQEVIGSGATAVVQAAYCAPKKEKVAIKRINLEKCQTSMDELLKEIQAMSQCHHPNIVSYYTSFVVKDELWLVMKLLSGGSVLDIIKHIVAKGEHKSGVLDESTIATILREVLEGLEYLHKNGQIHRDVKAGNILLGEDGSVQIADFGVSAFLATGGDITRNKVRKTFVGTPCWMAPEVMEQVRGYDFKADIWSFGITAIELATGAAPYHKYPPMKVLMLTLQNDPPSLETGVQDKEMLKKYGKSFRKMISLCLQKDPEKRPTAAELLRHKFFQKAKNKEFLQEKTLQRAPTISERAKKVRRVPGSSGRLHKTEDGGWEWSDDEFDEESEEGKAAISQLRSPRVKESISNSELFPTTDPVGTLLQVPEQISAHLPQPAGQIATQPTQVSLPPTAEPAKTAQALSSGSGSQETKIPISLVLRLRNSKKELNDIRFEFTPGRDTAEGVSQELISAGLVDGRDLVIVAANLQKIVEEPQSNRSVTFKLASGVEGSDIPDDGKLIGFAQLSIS
For test [6], the system named is Phosphatidylinositol 4,5-bisphosphate 3-kinase catalytic subunit alpha isoform (Homo sapiens), P42336 [E542K]. To be noted: at 10 µM.
Phosphatidylinositol 4,5-bisphosphate 3-kinase catalytic subunit alpha isoform (Homo sapiens), P42336 [E542K], sequence (P42336 whole entry E542K, canonical isoform): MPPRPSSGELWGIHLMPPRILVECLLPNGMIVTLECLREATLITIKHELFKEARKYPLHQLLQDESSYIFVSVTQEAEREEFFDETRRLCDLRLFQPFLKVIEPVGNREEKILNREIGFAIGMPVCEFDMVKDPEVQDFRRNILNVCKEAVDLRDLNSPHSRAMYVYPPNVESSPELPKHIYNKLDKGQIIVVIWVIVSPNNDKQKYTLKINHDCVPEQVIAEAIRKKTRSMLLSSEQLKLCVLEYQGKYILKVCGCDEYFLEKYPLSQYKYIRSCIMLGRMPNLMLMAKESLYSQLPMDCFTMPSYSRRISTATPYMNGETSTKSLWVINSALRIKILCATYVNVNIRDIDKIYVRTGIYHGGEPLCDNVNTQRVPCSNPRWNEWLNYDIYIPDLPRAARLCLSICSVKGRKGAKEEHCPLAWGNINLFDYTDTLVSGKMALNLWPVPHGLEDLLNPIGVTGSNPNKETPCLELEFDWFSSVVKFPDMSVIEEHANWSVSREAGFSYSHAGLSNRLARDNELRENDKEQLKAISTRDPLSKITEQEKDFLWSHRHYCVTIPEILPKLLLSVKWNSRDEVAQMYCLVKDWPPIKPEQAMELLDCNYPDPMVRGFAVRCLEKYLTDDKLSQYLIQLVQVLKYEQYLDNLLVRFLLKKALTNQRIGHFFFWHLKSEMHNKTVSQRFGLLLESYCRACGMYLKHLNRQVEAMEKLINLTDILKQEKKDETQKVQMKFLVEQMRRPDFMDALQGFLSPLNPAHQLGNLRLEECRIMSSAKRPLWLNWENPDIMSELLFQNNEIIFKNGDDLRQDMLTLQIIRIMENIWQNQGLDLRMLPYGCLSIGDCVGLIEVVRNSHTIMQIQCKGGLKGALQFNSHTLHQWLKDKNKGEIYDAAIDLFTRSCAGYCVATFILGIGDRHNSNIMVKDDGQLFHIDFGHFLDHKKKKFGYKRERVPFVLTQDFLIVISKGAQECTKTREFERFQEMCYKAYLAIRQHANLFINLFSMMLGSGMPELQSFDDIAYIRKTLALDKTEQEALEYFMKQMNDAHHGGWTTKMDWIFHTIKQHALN
Test [7] concerns the target Serine/threonine-protein kinase mTOR (Homo sapiens, UniProt P42345). The experiment in a line: Selectivity interaction (KinomeScan (DiscoverX)) EUB0000607a MTOR. To be noted: at 10 µM.
Test [8] concerns the target Serine/threonine-protein kinase tousled-like 2 (Homo sapiens) (UniProt Q86UE8). Briefly: Selectivity interaction (ActivX KiNativ screen (kinase selectivity in THP-1 cell lysates)) EUB0000639a TLK2. The class given is subcellular. Particulars: lysate.
The target of test [9] is Cyclin-dependent kinase 14 (Homo sapiens) (UniProt O94921). The experiment in a line: Selectivity interaction (ActivX KiNativ screen (kinase selectivity in THP-1 cell lysates)) EUB0000639a CDK14. The class given is subcellular. Particulars: lysate, at 5 µM.
Cyclin-dependent kinase 14 (Homo sapiens), sequence (O94921 whole entry): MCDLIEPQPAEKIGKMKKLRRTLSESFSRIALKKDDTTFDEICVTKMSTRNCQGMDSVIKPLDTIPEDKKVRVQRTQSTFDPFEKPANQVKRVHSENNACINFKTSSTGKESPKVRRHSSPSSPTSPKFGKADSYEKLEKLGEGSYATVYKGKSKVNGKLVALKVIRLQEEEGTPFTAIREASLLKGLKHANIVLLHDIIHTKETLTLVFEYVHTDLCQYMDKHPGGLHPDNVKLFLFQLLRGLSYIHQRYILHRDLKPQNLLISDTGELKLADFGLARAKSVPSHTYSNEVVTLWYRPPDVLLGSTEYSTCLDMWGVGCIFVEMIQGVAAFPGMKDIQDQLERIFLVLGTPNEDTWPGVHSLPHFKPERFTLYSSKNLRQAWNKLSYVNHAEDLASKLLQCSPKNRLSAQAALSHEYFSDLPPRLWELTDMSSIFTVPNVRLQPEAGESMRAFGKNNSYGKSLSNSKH
For test [10], the target named is Dual specificity protein kinase CLK1 (Homo sapiens, UniProt P49759). The experiment in a line: Selectivity interaction (KinomeScan (DiscoverX)) EUB0001619a CLK1. To be noted: at 1 µM.
Dual specificity protein kinase CLK1, sequence (P49759 whole entry, looked up): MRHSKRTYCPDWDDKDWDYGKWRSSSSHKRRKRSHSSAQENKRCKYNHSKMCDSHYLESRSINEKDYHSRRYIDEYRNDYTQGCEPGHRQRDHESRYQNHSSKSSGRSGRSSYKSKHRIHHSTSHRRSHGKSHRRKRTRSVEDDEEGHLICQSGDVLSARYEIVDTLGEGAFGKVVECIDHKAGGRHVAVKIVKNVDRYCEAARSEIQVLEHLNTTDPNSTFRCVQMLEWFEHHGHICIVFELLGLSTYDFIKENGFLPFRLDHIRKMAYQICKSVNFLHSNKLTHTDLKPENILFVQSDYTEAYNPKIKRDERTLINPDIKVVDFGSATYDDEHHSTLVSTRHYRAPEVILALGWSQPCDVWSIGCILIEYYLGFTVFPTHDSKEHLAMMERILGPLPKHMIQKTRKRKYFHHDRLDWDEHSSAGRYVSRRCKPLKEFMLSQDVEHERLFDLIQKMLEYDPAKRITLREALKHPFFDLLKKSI
For test [11], the target named is Macrophage-stimulating protein receptor (Homo sapiens, UniProt Q04912). Briefly: Selectivity interaction (KinomeScan (DiscoverX)) EUB0000618a MST1R. Particulars: at 10 µM.

Serine/threonine-protein kinase tousled-like 2 (Homo sapiens), sequence (Q86UE8 whole entry, looked up): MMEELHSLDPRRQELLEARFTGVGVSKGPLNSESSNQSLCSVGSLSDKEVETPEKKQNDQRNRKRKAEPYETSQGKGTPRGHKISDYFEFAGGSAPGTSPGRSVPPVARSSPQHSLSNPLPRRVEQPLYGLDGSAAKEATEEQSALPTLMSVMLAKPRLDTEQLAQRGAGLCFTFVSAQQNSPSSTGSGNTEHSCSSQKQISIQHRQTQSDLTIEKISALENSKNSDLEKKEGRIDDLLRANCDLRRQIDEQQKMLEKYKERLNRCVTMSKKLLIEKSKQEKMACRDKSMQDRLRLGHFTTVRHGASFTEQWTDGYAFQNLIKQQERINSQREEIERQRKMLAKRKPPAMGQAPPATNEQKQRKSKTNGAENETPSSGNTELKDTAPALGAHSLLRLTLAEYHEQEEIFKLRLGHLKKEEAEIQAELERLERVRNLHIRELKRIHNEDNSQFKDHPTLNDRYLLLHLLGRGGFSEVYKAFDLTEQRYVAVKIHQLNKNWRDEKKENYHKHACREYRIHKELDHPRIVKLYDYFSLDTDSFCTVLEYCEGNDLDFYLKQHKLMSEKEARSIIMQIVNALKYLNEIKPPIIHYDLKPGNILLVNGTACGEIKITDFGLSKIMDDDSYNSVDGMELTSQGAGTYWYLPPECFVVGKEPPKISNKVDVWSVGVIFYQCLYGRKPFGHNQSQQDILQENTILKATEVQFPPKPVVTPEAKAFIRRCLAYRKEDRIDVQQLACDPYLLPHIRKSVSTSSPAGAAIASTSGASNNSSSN
G protein-coupled receptor kinase 4 (Homo sapiens), sequence (P32298 whole entry, looked up): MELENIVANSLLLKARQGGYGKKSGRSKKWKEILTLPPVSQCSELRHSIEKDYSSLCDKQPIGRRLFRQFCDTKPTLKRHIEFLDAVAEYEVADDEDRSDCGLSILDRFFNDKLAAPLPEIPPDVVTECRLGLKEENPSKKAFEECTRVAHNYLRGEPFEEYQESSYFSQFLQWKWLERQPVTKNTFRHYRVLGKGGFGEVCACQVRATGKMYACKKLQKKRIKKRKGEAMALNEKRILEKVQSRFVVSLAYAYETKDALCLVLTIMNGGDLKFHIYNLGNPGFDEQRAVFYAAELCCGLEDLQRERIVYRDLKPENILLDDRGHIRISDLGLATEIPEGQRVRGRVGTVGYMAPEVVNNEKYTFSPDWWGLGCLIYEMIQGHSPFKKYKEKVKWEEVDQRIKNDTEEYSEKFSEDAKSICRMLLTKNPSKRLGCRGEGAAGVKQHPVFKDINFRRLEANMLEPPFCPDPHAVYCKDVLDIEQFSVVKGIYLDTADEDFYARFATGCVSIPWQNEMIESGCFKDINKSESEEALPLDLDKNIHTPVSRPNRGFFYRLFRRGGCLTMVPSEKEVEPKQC

`CN(C)C/C=C/C(=O)Nc1ccc(C(=O)N2CCCC(Nc3ncc(Cl)c(-c4c[nH]c5ccccc45)n3)C2)cc1` (stereo not given): in test [1], the % of control was 99%.

For the molecule `Nc1cnc(N2CCc3cc(S(=O)(=O)Nc4c(F)cc(Cl)cc4F)cc(N4CCCC4=O)c32)nc1` [TP-020n], the % of control in test [2] and in test [3] was 100% throughout.

`CCC(=O)N1CCN(c2ccc(-n3c(=O)ccc4cnc5ccc(-c6cnc7ccccc7c6)cc5c43)cc2C(F)(F)F)CC1` came in with a % of control in test [4] of 52%.

Turning to `COc1cc(Nc2nc(C)cc(-c3cnn4nc(OC)ccc34)n2)cc(C(F)(F)F)c1`, the % of control in test [5] stood at 83%.

As to `CNC(=O)Nc1ccc(-c2nc(N3CC4CCC(C3)O4)c3cnn(C4CCC5(CC4)OCCO5)c3n2)cc1`, the % of control in [6] was 14%; in test [7], 5.7%.

Consider `CC[C@@H]1[C@H](F)C(=O)N[C@@H]1COc1nccc2cc(C(N)=O)c(OC)cc12` [ZIMLOVISERTIB], for which the % of inhibition stood at 16.6% in test [8] (at 0.01 µM); 2.6% in [8] (at 0.04 µM); 18.7% in test [8] (at 0.2 µM); 46.3% in test [8] (at 1 µM); 73.5% in [8] (at 5 µM); 12.8% in test [9].

`N#Cc1cccc(-c2c[nH]c3ncnc(N4CCOCC4)c23)c1` gave a % of control in test [10] of 63%.

In turn, `O[C@H]1CC[C@H](Nc2ncc3nc(Nc4c(F)cc(F)cc4F)n([C@H]4CCOC4)c3n2)CC1` gave a % of control in [11] of 100%.
